The text below walks through data of article PMC4589676, “Functional characterization and stability improvement of a ‘thermophilic-like’ ene-reductase from Rhodococcus opacus 1CP” (Frontiers in Microbiology, 2015).

Assay [1] addresses T1, OYERo2 (Rhodococcus opacus, UniProt A0A1B1KA86).
T1 construct: gene O4328_33150; full length, N-terminal His10-tag kept, codon-optimised synthetic gene (1101 bp) in pET16bP, E. coli BL21 (DE3); 387 residues, theoretical 41,615 Da; variant OYERo2a is GenBank KR349312
Kind of assay: flavin absorption spectra (charge-transfer complex). In kind it is binding. The note with it: phenolic ligand. The text has this: flavin absorption spectra (charge-transfer complex) on OYERo2 | OYERo2 forms charge-transfer complexes with phenolic ligands. Next to 4-hydroxybenzaldehyde

Assay [2] deals with T2, OYERo2 (Rhodococcus opacus, UniProt A0A1B1KA86, A92R/Q93R/L94I/E95R/Y96E).
T2 construct: gene O4328_33150; full length, N-terminal His10-tag kept, codon-optimised synthetic gene (1101 bp) in pET16bP, E. coli BL21 (DE3); 387 residues, theoretical 41,615 Da; variant OYERo2a is GenBank KR349312
Kind of assay: absorption spectra and RP-HPLC of extracted flavin. Type of assay: binding. The settings on record: variant OYERo2a; same.

Assay [3] deals with T1, OYERo2. The assay can be described thus: absorption spectra and RP-HPLC of extracted flavin. The settings on record: non-covalent, 1:1, co-purified. Type of assay: binding.
Assay [4] has as its target OYERo2, ene-reductase (old yellow enzyme) from Rhodococcus opacus 1CP (Rhodococcus opacus 1CP). Kind of assay: SEC; analytical gel filtration, Superdex 200 HR 10/30, room temperature, 50 mM phosphate buffer pH 7.1 with 150 mM NaCl; 30 uM enzyme, elution buffer with 200 uM NADPH. Background: SEC sorts molecules by how far they enter the pores of the column.
Assay [5] shares this target. Kind of assay: SEC; analytical gel filtration, Superdex 200 HR 10/30, room temperature, 50 mM phosphate buffer pH 7.1 with 150 mM NaCl; high protein concentration (119 uM for OYERo2).
Assay [6] shares this target. The assay can be described thus: SEC; analytical gel filtration, Superdex 200 HR 10/30, room temperature, 50 mM phosphate buffer pH 7.1 with 150 mM NaCl; lower protein concentration (59 and 30 uM for OYERo2).

T1 sequence (A0A1B1KA86 entry or part of it): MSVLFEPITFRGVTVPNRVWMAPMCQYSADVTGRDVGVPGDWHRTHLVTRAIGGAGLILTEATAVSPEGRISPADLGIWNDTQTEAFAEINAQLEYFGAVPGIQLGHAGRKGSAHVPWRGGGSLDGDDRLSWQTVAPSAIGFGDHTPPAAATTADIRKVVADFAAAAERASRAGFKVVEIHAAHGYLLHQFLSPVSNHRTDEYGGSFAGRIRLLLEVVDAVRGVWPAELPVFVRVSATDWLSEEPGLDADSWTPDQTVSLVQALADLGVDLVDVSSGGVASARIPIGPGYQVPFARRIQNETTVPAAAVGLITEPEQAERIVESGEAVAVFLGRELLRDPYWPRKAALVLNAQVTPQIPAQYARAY
T2 sequence (A0A1B1KA86 entry or part of it A92R/Q93R/L94I/E95R/Y96E): as the sequence (A0A1B1KA86 entry or part of it) above, with A92R, Q93R, L94I, E95R, Y96E counted along it

Regarding `O=Cc1ccc(O)cc1` [4-hydroxybenzaldehyde], the “flavin absorption spectra (charge-transfer complex)” value on OYERo2 [1] is reported as “OYERo2 forms charge-transfer complexes with phenolic ligands. Next to 4-hydroxybenzaldehyde”.
Regarding `Cc1cc2nc3c(=O)[nH]c(=O)nc-3n(C[C@H](O)[C@H](O)[C@H](O)COP(=O)(O)O)c2cc1C` [FMN], the “absorption spectra and RP-HPLC of extracted flavin” value on OYERo2 [2] was “RP-HPLC on flavin samples extracted from purified OYERo2 and OYERo2a”; at OYERo2 [3] it was “The type of flavin cofactor was identified as FMN using RP-HPLC”.
Usually stoichiometry N stands for the number of molecules, sites or subunits per partner or assembly. With “OYERo2, ene-reductase (old yellow enzyme) from Rhodococcus opacus 1CP”, the stoichiometry N stood at 2 in assay [4], 4 in assay [5] and 2 in assay [6].
